Assays:
[1] = design: method as in unpublished data; details: humans, 14C-labelled pretomanid; ref unpublished data; cited from earlier work
[2] = Mass balance study in humans using 14C-labelled pretomanid; format: in vivo; details: human, plasma, oral; 6% of the pretomanid therapeutic AUC0-24, 200 mg/day; read-out: Estimated human AUC0-24 of M50
mouse lymphoma cells = assay: Non-GLP in vitro mouse lymphoma assay; format: cell-based; details: concentrations up to 1000 μg/mL, data not shown
[3] = Plasma exposure in the mouse micronucleus study; format: in vivo, mice
[4] = tested on: CD-1(ICR) BR mice, bone marrow erythrocytes; assay: Bone marrow micronucleus assay in mice; format: in vivo
Experimental: Groups of male CD-1®(ICR) BR mice were given single oral doses of vehicle (0.4% CMC), positive control article, or pretomanid at 125, 500 or 2000 mg/kg and then were euthanized approximately 24 or 48 hours later to harvest femoral bone marrow. Bone marrow was mounted on slides and stained with May-Grünwald solution and Giemsa. For each mouse, 500 red blood cells were examined to determine the ratio of immature red blood cells (polychromatophilic erythrocytes or PCEs) to mature red blood cells (normochromatophilic erythrocytes of NCEs) and 2000 PCEs were examined to determine the ratio of micronucleated PCEs (mnPCEs) to normal PCEs.
The mean PCE-to-NCE ratios in various groups were compared to reach conclusions about assay validity and effects on erythropoiesis. The mean mnPCE-to-PCE ratios in various groups were compared to reach conclusions about assay validity and clastogenicity. Comparisons were made using an analysis of variance on untransformed mnPCE-to-PCE ratios for each mouse and on untransformed PCE-to-NCE ratios when the variances were homogeneous. Ranked proportions were used for heterogeneous variances. […] Comparisons were made at the 5% probability level.

SMILES | M50 metabolite as % of the parent compound [1] | AUC(0-t) [2] | Genotoxicity in mouse lymphoma assay (mouse lymphoma cells) | Cmax ([3]; male, CD-1(ICR) BR, mouse, single oral dose 2000 mg/kg, plasma) | AUC(0-t) ([3]; male, CD-1(ICR) BR, mouse, single oral dose 2000 mg/kg, plasma, read-out: Mean AUClast) | Dose proportionality of plasma exposure (Cmax and AUC) ([3]; single oral 125 to 2000 mg/kg) | mnPCE-to-PCE ratio ([4]; any dose level (125, 500, 2000 mg/kg), 24 or 48 h) | Effect on erythropoiesis (PCE:NCE ratio) ([4]; single oral 125, 500 or 2000 mg/kg) | Clastogenic potential in vivo ([4]; single oral doses up to 2000 mg/kg)
O=[N+]([O-])c1cn2c(n1)OC[C@@H](O)C2 [M50] | ~6% | ~3 µg·h/mL | – | – | – | – | – | – | –
O=[N+]([O-])c1cn2c(n1)OC[C@@H](OCc1ccc(OC(F)(F)F)cc1)C2 [Pretomanid, (6S)-2-nitro-6-{[4-(trifluoromethoxy)benzyl]oxy}-6,7-dihydro-5H-imidazo[2,1-b][1,3]oxazine] | – | – | negative | 36000 ng/mL | 1140 µg·h/mL | increased less than proportionally with dose level | did not significantly increase | did not affect erythropoiesis | negative
